How the values were obtained:
Assay in all cases: Bliss excess, mean over the matrix (fraction); higher = more synergy
[1] = system: AMO-1 (Plasma Cell Myeloma)
In short: (§1)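 After 24 hours at 37°C and 5% CO2 in 1536-well plates, cells in DMEM/F12 or RPMI plus 10% FBS received two-drug dose matrices for 72 hours. Viability came from CellTiter-Glo 2.0 luminescence and was scaled as inhibition, anchored at 0 by vehicle wells and at 1 by blank wells. Combination Emax is taken as the second-highest inhibition in the matrix, and Bliss excess as the observed combination effect less EA + EB − EA·EB, with EA and EB the single-agent effects.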

[2] = system: BT-549 (Breast Carcinoma)
In short: as §1

D-263MG (Glioblastoma) = system: D-263MG (Glioblastoma)
In short: as §1

[3] = system: EFM-19 (Breast Carcinoma)
In short: as §1

EW-24 (Ewing's Sarcoma) = system: EW-24 (Ewing's Sarcoma)
In short: as §1

[4] = system: EoL-1-cell (Acute Myeloid Leukemia)
In short: as §1

[5] = system: MIA-PaCa-2 (Pancreatic Carcinoma)
In short: as §1

[6] = system: MLMA (Other Blood Carcinomas)
In short: as §1

NB69 (Neuroblastoma) = system: NB69 (Neuroblastoma)
In short: as §1

[7] = system: NCI-H727 (Other Solid Carcinomas)
In short: as §1

[8] = system: RF-48 (B-Cell Non-Hodgkin's Lymphoma)
In short: as §1

[9] = system: SW13 (Other Solid Carcinomas)
In short: as §1

UACC-62 (Melanoma) = system: UACC-62 (Melanoma)
In short: as §1

Row | Structure (SMILES) | Bliss excess [1] | Bliss excess [2] | Bliss excess (D-263MG (Glioblastoma)) | Bliss excess [3] | Bliss excess (EW-24 (Ewing's Sarcoma)) | Bliss excess [4] | Bliss excess [5] | Bliss excess [6] | Bliss excess (NB69 (Neuroblastoma)) | Bliss excess [7] | Bliss excess [8] | Bliss excess [9] | Bliss excess (UACC-62 (Melanoma))
1 | O=C(c1cc(Cc2n[nH]c(=O)c3ccccc23)ccc1F)N1CCN(C(=O)C2CC2)CC1 [Olaparib] + COc1nnc2ccc(N3CCC(c4ccc(OCCN5CCN(C)C(=O)[C@H]5C)cc4)CC3)nn12 [AZD5153] (first compound max 10 µM, 7x7, partner max 1 µM) | -0.0334 | -0.0697 | -0.057 | 0.0112 | -0.0469 | -0.0384 | -0.0233 | -0.0697 | 0.0035 | -0.0452 | -0.0374 | -0.0183 | 0.0387
2 | Cc1nc(-c2cn3c(n2)-c2ccc(-c4cnn(C(C)(C)C(N)=O)c4)cc2OCC3)n(C(C)C)n1 [Taselisib] + O=C(Nc1ccc2[nH]nc(-c3ccncc3)c2c1)[C@@H]1CCN(CC(=O)N2CCN(c3ccc(-c4ncccn4)cc3)CC2)C1 [SCH772984] (first compound max 10 µM, 7x7, partner max 5 µM) | 0.133 | 0.047 | 0.0047 | 0.0524 | 0.0424 | 0.191 | 0.149 | 0.0548 | -0.0509 | 0.0252 | 0.102 | 0.334 | -0.035
3 | CN(CCO)CC[C@H](CSc1ccccc1)Nc1ccc(S(=O)(=O)NC(=O)c2ccc(N3CCC([C@@H](O)c4ccccc4-c4ccc(Cl)cc4)CC3)cc2)cc1S(=O)(=O)C(F)(F)F [AZD4320] + CS(=O)(=O)CCNCc1ccc(-c2ccc3ncnc(Nc4ccc(OCc5cccc(F)c5)c(Cl)c4)c3c2)o1 [Lapatinib] (first compound max 1 µM, 7x7, partner max 10 µM) | 0.0695 | -0.0188 | -0.0288 | 0.013 | 0.0333 | 0.05 | 0.0373 | 0.014 | 0.0465 | 0.0904 | -0.0184 | 0.0051 | -0.0143
4 | C[C@@H]1COCCN1c1cc(C2([S@](C)(=N)=O)CC2)nc(-c2ccnc3[nH]ccc23)n1 [AZD6738] + Nc1ccn([C@@H]2O[C@H](CO)[C@@H](O)C2(F)F)c(=O)n1 [Gemcitabine] (first compound max 10 µM, 7x7, partner max 0.3 µM) | 0.0048 | -0.0194 | 0.102 | 0.127 | 0.0086 | -0.081 | 0.0999 | -0.0777 | 0.0147 | 0.0121 | 0.0277 | 0.0493 | 0.0114
5 | C[C@@H](Nc1cc(F)cc(F)c1)c1cc(C(=O)N(C)C)cc2c(=O)cc(N3CCOCC3)oc12 [AZD8186] + CC(=O)c1c(C)c2cnc(Nc3ccc(N4CCNCC4)cn3)nc2n(C2CCCC2)c1=O [Palbociclib] (first compound max 10 µM, 7x7, partner max 10 µM) | 0.126 | 0.0464 | 0.0181 | -0.0026 | 0.0598 | 0.0996 | 0.0485 | 0.0443 | -0.0111 | 0.0923 | 0.0054 | 0.044 | 0.0303
6 | C[C@@H](Oc1cc(-c2cnn(C3CCNCC3)c2)cnc1N)c1c(Cl)ccc(F)c1Cl [Crizotinib] + Cn1cnc2c(F)c(Nc3ccc(Br)cc3Cl)c(C(=O)NOCCO)cc21 [Selumetinib] (first compound max 10 µM, 7x7, partner max 10 µM) | 0.0122 | -0.063 | -0.0866 | -0.0327 | -0.0464 | 0.0352 | 0.0058 | -0.116 | -0.0283 | -0.0226 | -0.0548 | -0.0324 | -0.0229
7 | C[C@@H]1COCCN1c1cc(C2([S@](C)(=N)=O)CC2)nc(-c2ccnc3[nH]ccc23)n1 [AZD6738] + C1CC(C1)(C(=O)[O-])C(=O)[O-].N.N.[Pt+2] [Carboplatin] (first compound max 10 µM, 7x7, partner max 10 µM) | 0.0025 | -0.0453 | -0.0417 | -0.0328 | -0.0462 | -0.0132 | -0.0272 | -0.102 | -0.0502 | -0.0445 | -0.0788 | -0.0051 | -0.0289
8 | O=C(c1cc(Cc2n[nH]c(=O)c3ccccc23)ccc1F)N1CCN(C(=O)C2CC2)CC1 [Olaparib] + Cc1c2c(nn1C)CSCc1cc(n(C)n1)CSc1cc(c3ccccc3c1)OCCCc1c(C(=O)O)n(C)c3c-2c(Cl)ccc13 [AZD5991] (first compound max 10 µM, 7x7, partner max 1 µM) | -0.0124 | -0.0223 | -0.0401 | 0.0102 | -0.0215 | 0.0236 | -0.0205 | -0.0744 | -0.0042 | -0.0269 | -0.108 | 0.0104 | -0.0089
9 | C=CCn1c(=O)c2cnc(Nc3ccc(N4CCN(C)CC4)cc3)nc2n1-c1cccc(C(C)(C)O)n1 [AZD1775] + CCc1c2c(nc3ccc(O)cc13)-c1cc3c(c(=O)n1C2)COC(=O)[C@]3(O)CC [SN-38] (first compound max 1 µM, partner max 0.3 µM) | -0.052 | -0.057 | 0.0132 | -0.0175 | -0.113 | 0.0324 | 0.0699 | -0.0639 | 0.0239 | -0.0018 | -0.0404 | 0.0119 | -0.0497
10 | O=C(c1cc(Cc2n[nH]c(=O)c3ccccc23)ccc1F)N1CCN(C(=O)C2CC2)CC1 [Olaparib] + CC1(C)CCC(CN2CCN(c3ccc(C(=O)NS(=O)(=O)c4ccc(NCC5CCOCC5)c([N+](=O)[O-])c4)c(Oc4cnc5[nH]ccc5c4)c3)CC2)=C(c2ccc(Cl)cc2)C1 [Venetoclax] (first compound max 10 µM, 7x7, partner max 1 µM) | -0.0074 | -0.0516 | -0.0659 | 0.0138 | -0.0087 | 0.0698 | -0.0208 | -0.0299 | 0.067 | -0.0383 | 0.118 | -0.0309 | -0.007
11 | CS(=O)(=O)CCNCc1ccc(-c2ccc3ncnc(Nc4ccc(OCc5cccc(F)c5)c(Cl)c4)c3c2)o1 [Lapatinib] + Cn1cnc2c(F)c(Nc3ccc(Br)cc3Cl)c(C(=O)NOCCO)cc21 [Selumetinib] (first compound max 10 µM, 7x7, partner max 10 µM) | 0.0408 | -0.0473 | -0.0859 | -0.0395 | -0.0473 | -0.038 | 0.0484 | 0.0059 | -0.0397 | 0.0299 | -0.0137 | 0.0429 | -0.0119
12 | C[C@@H](Oc1cc(-c2cnn(C3CCNCC3)c2)cnc1N)c1c(Cl)ccc(F)c1Cl [Crizotinib] + CC1=C(C(=CC=C1)Cl)NC(=O)C2=CN=C(S2)NC3=CC(=NC(=N3)C)N4CCN(CC4)CCO [Dasatinib] (first compound max 10 µM, 7x7, partner max 2 µM) | -0.0368 | 0.0139 | 0.0932 | 0.0874 | -0.0154 | 0.0101 | 0.0119 | -0.0411 | 0.0051 | -0.0009 | -0.119 | -0.0173 | -0.0656
13 | Cc1c2c(nn1C)CSCc1cc(n(C)n1)CSc1cc(c3ccccc3c1)OCCCc1c(C(=O)O)n(C)c3c-2c(Cl)ccc13 [AZD5991] + CS(=O)(=O)CCNCc1ccc(-c2ccc3ncnc(Nc4ccc(OCc5cccc(F)c5)c(Cl)c4)c3c2)o1 [Lapatinib] (first compound max 1 µM, 7x7, partner max 10 µM) | 0.0149 | -0.042 | -0.0735 | -0.0035 | – | – | -0.0094 | -0.0474 | 0.021 | -0.0013 | -0.0917 | 0.0568 | -0.0376
14 | Cc1c2c(nn1C)CSCc1cc(n(C)n1)CSc1cc(c3ccccc3c1)OCCCc1c(C(=O)O)n(C)c3c-2c(Cl)ccc13 [AZD5991] + Nc1ccn([C@@H]2O[C@H](CO)[C@@H](O)C2(F)F)c(=O)n1 [Gemcitabine] (first compound max 1 µM, 7x7, partner max 0.3 µM) | 0.0042 | 0.0278 | 0.08 | 0.0744 | 0.0048 | -0.0123 | 0.0137 | -0.0451 | 0.0037 | -0.0394 | 0.0014 | 0.038 | -0.0219
15 | O=C(c1cc(Cc2n[nH]c(=O)c3ccccc23)ccc1F)N1CCN(C(=O)C2CC2)CC1 [Olaparib] + CN(CC[C@H](CSC1=CC=CC=C1)NC2=C(C=C(C=C2)S(=O)(=O)NC(=O)C3=CC=C(C=C3)N4CCC(CC4)[C@H](C5=CC=CC=C5C6=CC=C(C=C6)Cl)O)S(=O)(=O)C(F)(F)F)CCO [AZD4320] (first compound max 10 µM, 7x7, partner max 1 µM) | -0.0111 | -0.0365 | -0.0672 | -0.015 | 0.0097 | 0.0717 | 0.002 | -0.0619 | 0.0663 | -0.052 | 0.0454 | -0.0566 | -0.0105
16 | C=CCn1c(=O)c2cnc(Nc3ccc(N4CCN(C)CC4)cc3)nc2n1-c1cccc(C(C)(C)O)n1 [AZD1775] + Nc1ccn([C@@H]2O[C@H](CO)[C@@H](O)C2(F)F)c(=O)n1 [Gemcitabine] (first compound max 1 µM, partner max 0.3 µM) | 0.157 | -0.0069 | 0.0297 | 0.0061 | -0.0627 | 0.0391 | 0.0459 | -0.0797 | 0.0419 | -0.0278 | -0.005 | 0.0385 | 0.0399
17 | Cc1c2c(nn1C)CSCc1cc(n(C)n1)CSc1cc(c3ccccc3c1)OCCCc1c(C(=O)O)n(C)c3c-2c(Cl)ccc13 [AZD5991] + CC(=O)O[C@H]1C(=O)[C@@]2(C)[C@H]([C@H](OC(=O)c3ccccc3)[C@]3(O)C[C@H](OC(=O)[C@H](O)[C@@H](NC(=O)c4ccccc4)c4ccccc4)C(C)=C1C3(C)C)[C@]1(OC(C)=O)CO[C@@H]1C[C@@H]2O [Paclitaxel] (first compound max 1 µM, 7x7, partner max 3 µM) | 0.0096 | 0.0124 | 0.206 | 0.0948 | 0.0289 | -0.0041 | – | -0.0803 | 0.027 | -0.025 | -0.0407 | 0.0376 | 0.115
18 | CC1(C)CCC(CN2CCN(c3ccc(C(=O)NS(=O)(=O)c4ccc(NCC5CCOCC5)c([N+](=O)[O-])c4)c(Oc4cnc5[nH]ccc5c4)c3)CC2)=C(c2ccc(Cl)cc2)C1 [Venetoclax] + CS(=O)(=O)CCNCc1ccc(-c2ccc3ncnc(Nc4ccc(OCc5cccc(F)c5)c(Cl)c4)c3c2)o1 [Lapatinib] (first compound max 1 µM, 7x7, partner max 10 µM) | 0.0614 | -0.0573 | -0.0669 | -0.002 | -0.0183 | 0.0351 | 0.0099 | -0.0329 | 0.0877 | -0.012 | 0.0123 | -0.0672 | -0.0044
